{"source": "patent US7271239B2", "about": "“D-isomers of antimicrobial peptide” (The Research Foundation of State University of New York, priority 2004, dated 2007)", "key": {"C. albicans strain DIS": {"tested_on": "C. albicans strain DIS", "type": "in vivo, mice ICR strain", "conditions": "for Log10 cfu/ml (Mean + S.D.), Initial infection: before treatment (baseline)", "method": "A previously described protocol was adopted (14). Mice were immunosuppressed with two subcutaneous injections of prednisolone at a dose of 100 mg/kg body weight 1 day prior to and 3 days after the infection with C. albicans. Tetracycline hydrochloride in drinking water at a concentration of 0.83 mg/ml was given to mice beginning 1 day before infection. Mice were anesthetized by intramuscular injection with 60 μl of 2 mg/ml chlorpromazine chloride, using a dose of 10 mg/kg body weight of mice. While under anesthesia, a small cotton ball soaked in 0.1 ml aliquot of C. albicans cell suspension (2.5×10^6 cells) was used to swab the entire oral cavity of the anesthetized mice.\nVisual evaluation was done by carefully extending the tongue of randomly picked mice using blunt-end forceps, while the mice were under isoflurane sedation. Presence of thick, white curd-like patches indicated candidal infection. At day 3 post-infection, all animals were examined for evidence oral candidal infection by microbiological evaluation. The entire oral cavity of anesthetized mice was swabbed using a sterile calcium alginate disposable swab (Fisher Scientific), dampened with sterile PBS. Cells were then released from the swab into 1 ml PBS. Serial 10-fold dilutions were plated on SDA plates supplemented with streptomycin (30 μg/ml). Plates were incubated for 24 h at 37° C. and yeast cell count expressed as log10 of cfu/ml.\nTongues from sacrificed animals were used for histological studies. They were fixed in 10% formalin and embedded in paraffin. Serial five-μm sections were cut from the paraffin block and stained with periodic acid-Schiff (PAS) reagent for detection of C. albicans.\nMice were randomly divided into various treatment groups with 8 mice per group. Antifungal agents were employed on an equimolar basis, and included amphotericin B (1.75%), clotrimazole (0.66%), MUC7 12-mer (RKSYKCLHKRCR—SEQ ID NO:1) (L; 3%), MUC7 12-mer (D; 3%), MUC7 12-mer (D; 3%) containing Na2EDTA (1 mM), MUC7 12-mer (L; 3%) containing protease inhibitor cocktail (PIC) (1%), and Hsn5 12-mer (AKRHHGYKRKFH—SEQ ID NO:2) (3%). They were all emulsified in Pluronic F127, (20% lipoil), a polymer of polyoxyethylene and polyoxypropylene (non-ionic surfactant). Animals were anesthetized using isoflurane; while sedated, about 30 to 40 μl of the antifungal emulsion was applied on the tongue and spread throughout oral cavity. The treated mice were under sedation for additional 5 min under isoflurane. Animals were not given access to food and water for 1 h following the application.\nFungal burden was re-evaluated quantitatively after 3 and 6 days of treatment, using the same technique as the one used for initial evaluation. Randomly picked mice from each group was subjected to histopathological evaluation, after 6 days of treatment. Blood from randomly sacrificed mice from each treatment group was analyzed for any changes in the serum liver (AST, ALT, ALP etc.) and kidney enzymes (BUN, glucose, creatinine etc) levels.\nStatistical analysis was performed using a significance level set at 0.05 (α) and a significant group size (n=8). Initial infection and antifungal treatment efficacy were determined using analysis of variance (ANOVA), expressed as log10 cfu, and Scheffe's multiple comparison test was used to determine the differences between various treatment groups."}, "HOK-16B cells": {"tested_on": "HOK-16B cells", "assay": "MTS cell viability assay", "type": "cell-based, human", "method": "FIG. 6. Effect of peptides on viability of (A) HOK-16B cells and (B) KB cells. The toxic effect of the compounds on the cells was determined by calorimetric assay using a CellTiter 96 AQueous One Solution cell proliferation assay (MTS) kit, as described in the text. Briefly, the cells were grown to about 80% confluence, harvested, washed, resuspended in KGM, and dispensed into a 96-well microtiter plate. They were then exposed to different concentrations of peptides or amphotericin B at 37° C. and 5% CO2 for 1.5 h. MTS agent was then added to each well, and the cells were further incubated for 4 h. Absorbance at 490 nm was then measured using a microplate reader. MTS reduction is an indication of cell viability. The viability is expressed as relative absorbance (percentage of no-agent control). Data represent the average and standard deviation of results from two independent experiments.\nCell culture. The HOK-16B cell line (originated from primary normal human keratinocytes) was kindly provided by No-Hee Park, UCLA School of Dentistry. The KB cell line was obtained from the American Type Culture Collection (CLL-17). […]\nMTS cell viability assay. The toxic effect of the compounds on the cells was determined by calorimetric assay using a CellTiter 96 AQueous One Solution cell proliferation assay (MTS) kit (Promega, Wis.). […] Absorbance at 490 nm was then measured using a microplate reader. […]"}, "[1]": {"conditions": "Experimental study I, topical oral application"}}, "note": "Like-named read-outs stand apart in the source and are kept apart here.", "data": [{"compound": "C[C@@H]1[C@H](O)[C@@H](C)/C=C/C=C/C=C/C=C/C=C/C=C/C=C/[C@H](O[C@@H]2O[C@H](C)[C@@H](O)[C@H](N)[C@@H]2O)C[C@@H]2O[C@](O)(C[C@@H](O)C[C@@H](O)[C@H](O)CC[C@@H](O)C[C@@H](O)CC(=O)O[C@H]1C)C[C@H](O)[C@H]2C(=O)O", "note": "[Amphotericin B]", "values": [{"measurement": "Log10 cfu/ml (Mean + S.D.), Initial infection", "setting": "C. albicans strain DIS; Experimental study I, day 3 post-infection", "result": "4.52 ± 0.15", "unit": "Log10 cfu/ml"}, {"measurement": "Log10 cfu/ml (Mean + S.D.), 3-days treatment", "setting": "C. albicans strain DIS; [1]", "result": "1.79 ± 1.16", "unit": "Log10 cfu/ml"}, {"measurement": "Log10 cfu/ml (Mean + S.D.), 6-days treatment", "setting": "C. albicans strain DIS; [1]", "result": "0.75 ± 1.04", "unit": "Log10 cfu/ml"}, {"measurement": "Log10 cfu/ml (Mean + S.D.), 3-days treatment", "setting": "C. albicans strain DIS; Experimental study II", "result": "1.23 ± 1.44", "unit": "Log10 cfu/ml"}, {"measurement": "Log10 cfu/ml (Mean + S.D.), Initial infection", "setting": "C. albicans strain DIS; Experimental study II", "result": "4.26 ± 0.54", "unit": "Log10 cfu/ml"}, {"measurement": "histopathological finding in tongue sections (C. albicans, PAS staining)", "setting": "C. albicans strain DIS; end of treatment", "result": "healthy tissue and absence of visible microorganisms"}, {"measurement": "IC50", "setting": "HOK-16B cells", "result": 100, "unit": "µM"}]}]}
